{
  "source": "patent US12123009B2",
  "about": "“Methods and compositions for PPO herbicide tolerance in plants” (Monsanto Technology LLC, priority 2015, dated 2024)",
  "key": {"[1]": {"test_system": "leaf discs of transgenic maize expressing H_N10 (SEQ ID NO: 4)", "assay": "Leaf disc assay, maize", "assay_type": "in vivo", "details": "H_N10, construct 6; 1 micromolar", "procedure": "A leaf-disc assay was employed for rapid and minimally damaging assessment of herbicide tolerance in transgenic plants expressing a recombinant PPO enzyme. Leaf tissue was sampled from the youngest fully-green leaf of corn and soybean plants. Five 4-mm diameter leaf discs were cut from the leaf samples using a disposable biopsy punch with a plunger (Integra® Miltex®, Inc., York. Pennsylvania) and the leaf discs were placed into one ml of incubation solution (1 mM MES, pH 6.5, 1% w/v sucrose, 1% (v/v) acetone) in 24-well polystyrene plates with lids. For herbicide tolerance analysis, S-3100 was added to the incubation solution to a final concentration of 1 micromolar. Vacuum infiltration was applied and plates of leaf discs were incubated in continuous darkness for one day at room temperature (23-24° C.) followed by one (soybean) or two (corn) days continuous light incubation under overhead fluorescent and incandescent bulbs (520 uE) at 26-27° C. Leaf disc injury was then scored visually on a scale from 0 (lowest injury) to 4 (highest injury), with lower scores indicating better tolerance to the PPO herbicide."}, "[2]": {"test_system": "maize, non-transgenic or F1 containing H_N10 (SEQ ID NO: 4)", "assay": "Efficacy field trial of F1 maize", "assay_type": "in vivo", "procedure": "This F1 population was segregating (50% hemizygous and 50% null) and selection for transgenic plants was not conducted prior to injury ratings. The overall average injury ratings for such a population are expected to be higher than a homogenous transgenic population since it is difficult to discern non-transgenic plants from transgenic plants. The trials were conducted at two locations with two replicates and 3 treatments per construct. Non-transgenic maize plants were used as a negative control. The herbicide application treatments were as follows: Treatment 1 was 0.036 lb ai/acre S-3100 applied at V2 followed by (fb) V4 fb V8; Treatment 2: was 0.072 lb ai/acre S-3100 applied at V2 fb V4 fb V8; Treatment 3: was 0.144 lb ai/acre S-3100 applied at V2 fb V4 fb V8. Crop Injury Percent ratings were assessed at the V2 growth stage (CIPV2) and at the V4 growth stage (CIPV4) at 5 to 7 days after treatment (the error V2 and error V4 are half of the least significant difference (LSD)). The crop injury ratings were combined for both locations."}, "[3]": {"biological_target": "Soybean (Glycine max) protoporphyrinogen oxidase (PPO), wild type", "assay": "PPO enzyme assay (plastid extract)", "assay_type": "biochemical", "details": "3 μM protogen; pH 7.4, 30° C.; read-out: S-3100 IC50"}, "[4]": {"test_system": "soybean (A3555), non-transgenic or expressing H_N10 (SEQ ID NO: 4)", "assay": "R0 soybean sprayed with S-3100", "assay_type": "in vivo", "details": "5 g/ha, V3, 8 days", "procedure": "In soybean, excised embryos (A3555) were transformed with the transformation constructs 1 and 11 using A. tumefaciens and standard methods known in the art. […] Regenerated R0 transgenic plantlets were grown in the greenhouse. […] The herbicide was sprayed at the V3 developmental stage with three fully developed trifoliate leaves and injury ratings were assessed 8 days after treatment. The percentage of plants that were deemed highly tolerant (15% or less injury) was noted.\nThe herbicide was sprayed at the V3 developmental stage with three fully developed trifoliate leaves and injury ratings taken 8 days after treatment. The percentage of plants that were deemed highly tolerant (25% or less injury) was noted."}, "[5]": {"details": "H_N10, construct 6, Trt 1, 0.036 lb ai/acre"}, "[6]": {"details": "H_N10, construct 6, Trt 2, 0.072 lb ai/acre"}, "[7]": {"details": "H_N10, construct 6, Trt 3, 0.144 lb ai/acre"}, "[8]": {"details": "H_N10, construct 16, Trt 1, 0.036 lb ai/acre"}, "[9]": {"details": "H_N10, construct 16, Trt 2, 0.072 lb ai/acre"}, "[10]": {"details": "H_N10, construct 16, Trt 3, 0.144 lb ai/acre"}, "[11]": {"details": "wildtype, Trt 1, 0.036 lb ai/acre V2 fb V4 fb V8"}, "[12]": {"details": "wildtype, Trt 2, 0.072 lb ai/acre V2 fb V4 fb V8"}, "[13]": {"details": "wildtype, Trt 3, 0.144 lb ai/acre V2 fb V4 fb V8"}, "[14]": {"details": "H_N10 (SEQ ID NO: 4), construct 11"}},
  "data": [
    {"smiles": "CCOC(=O)COc1ncccc1Oc1cc(-n2c(=O)cc(C(F)(F)F)n(C)c2=O)c(F)cc1Cl", "note": "[S-3100, ethyl [3-2-chloro-4-fluoro-5-(1-methyl-6-trifluoromethyl-2,4-dioxo-1,2,3,4-tetrahydropyrimidin-3-yl)phenoxy]-2-pyridyloxylacetate]", "values": [
      {"measurement": "average leaf disc score (0 lowest to 4 highest injury)", "setting": "[1]", "result": 0.4},
      {"measurement": "CIPV2 (Crop Injury Percent, V2)", "setting": "[2]; [5]", "result": 37.5, "unit": "%"},
      {"measurement": "CIPV4 (Crop Injury Percent, V4)", "setting": "[2]; [5]", "result": 0, "unit": "%"},
      {"measurement": "CIPV2 (Crop Injury Percent, V2)", "setting": "[2]; [6]", "result": 37.5, "unit": "%"},
      {"measurement": "CIPV4 (Crop Injury Percent, V4)", "setting": "[2]; [6]", "result": 0, "unit": "%"},
      {"measurement": "CIPV2 (Crop Injury Percent, V2)", "setting": "[2]; [7]", "result": 50, "unit": "%"},
      {"measurement": "CIPV4 (Crop Injury Percent, V4)", "setting": "[2]; [7]", "result": 0, "unit": "%"},
      {"measurement": "CIPV2 (Crop Injury Percent, V2)", "setting": "[2]; [8]", "result": 96.3, "unit": "%"},
      {"measurement": "CIPV4 (Crop Injury Percent, V4)", "setting": "[2]; [8]", "result": 98.5, "unit": "%"},
      {"measurement": "CIPV2 (Crop Injury Percent, V2)", "setting": "[2]; [9]", "result": 99.5, "unit": "%"},
      {"measurement": "CIPV4 (Crop Injury Percent, V4)", "setting": "[2]; [9]", "result": 99.5, "unit": "%"},
      {"measurement": "CIPV2 (Crop Injury Percent, V2)", "setting": "[2]; [10]", "result": 99.5, "unit": "%"},
      {"measurement": "CIPV4 (Crop Injury Percent, V4)", "setting": "[2]; [10]", "result": 99.5, "unit": "%"},
      {"measurement": "injury following V2 and V4 application", "setting": "[2]; non-transgenic and construct 16, all three treatments", "result": "94.6-99.5%"},
      {"measurement": "CIPV2 (Crop Injury Percent, V2)", "setting": "[2]; [11]", "result": 94.6, "unit": "%"},
      {"measurement": "CIPV4 (Crop Injury Percent, V4)", "setting": "[2]; [11]", "result": 99, "unit": "%"},
      {"measurement": "CIPV2 (Crop Injury Percent, V2)", "setting": "[2]; [12]", "result": 99.5, "unit": "%"},
      {"measurement": "CIPV4 (Crop Injury Percent, V4)", "setting": "[2]; [12]", "result": 99.5, "unit": "%"},
      {"measurement": "CIPV2 (Crop Injury Percent, V2)", "setting": "[2]; [13]", "result": 99.5, "unit": "%"},
      {"measurement": "CIPV4 (Crop Injury Percent, V4)", "setting": "[2]; [13]", "result": 99.5, "unit": "%"},
      {"measurement": "IC50", "setting": "[3]", "result": 4, "unit": "nM"},
      {"measurement": "average injury rating", "setting": "[4]; [14]", "result": 47, "unit": "%"},
      {"measurement": "highly tolerant plants (25% or less injury)", "setting": "[4]; [14]", "result": 30, "unit": "%"},
      {"measurement": "average injury rating", "setting": "[4]; non-transgenic", "result": 60, "unit": "%"},
      {"measurement": "highly tolerant plants (25% or less injury)", "setting": "[4]; non-transgenic", "result": "no highly tolerant plants"}
    ]}
  ]
}
